Test results published in ChEMBL document CHEMBL1129675, “New directions in antibacterial research” (1996).
Converted amounts (≈) assume the structure as drawn. The source made the active and inactive calls. The rule behind the calls is not given here. Starred links: 1 amine or outer side, 2 acyl side, 3 side chain; linkers in the order of their positions; H or OH if unused. Positions of bridges follow the written chain, without caps; N, C: chain ends. Non-standard residues stand in square brackets, D forms with d. Residues, ends and D or L forms follow the SMILES beside them. X1 = O=C([C@@H](N[*:1])c1ccc(O[C@H]2OC(CO)[C@@H](O)[C@@H](O)[C@@H]2O[C@H]2O[C@@H](CO)[C@@H](O)[C@H](O)[C@H]2O)cc1)[*:2]; X4 = CC(C)CC/C=C\C=C/C(=O)NC(CC(N)=O)C(=O)CC(C(=O)[*:1])C(O[*:2])C(N)=O; X2 = CC(C)C/C=C\C=C/C(=O)NC(CC(N)=O)C(=O)CC(C(=O)[*:1])C(O[*:2])C(N)=O; X3 = CCC/C=C\C=C/C(=O)NC(CC(N)=O)C(=O)CC(C(=O)[*:1])C(O[*:2])C(N)=O; Hpg(3-Cl) = N[C@H](C(=O)O)c1ccc(O)c(Cl)c1; Hpg = N[C@H](C(=O)O)c1ccc(O)cc1; Orn = NCCC[C@H](N)C(=O)O

Legend:
[1] = Inhibitory activity against Lactobacillus species.; type: functional; settings: Bacteria
[2] = Inhibitory activity against Leuconostoc species.; type: functional
[3] = Inhibitory activity against Pediococcus species.; type: functional
Enterococcus = experiment: Inhibitory activity against Vancomycin resistant enterococci; type: functional
Pseudomonas aeruginosa = experiment: Antibacterial activity against Pseudomonas aeruginosa was determined; Active; type: functional, organism-based
[4] = Inhibitory activity against many clinical relevent pathogen; Range is 5-50 ug/mL; type: functional
Staphylococcus aureus = experiment: Inhibitory activity against MRSA; type: functional
Haemophilus influenzae = experiment: Antibacterial activity against Haemophilus influenzae; Active; type: functional, organism-based
Pasteurella multocida = experiment: Antibacterial activity against Pasteurella multocida; More active; type: functional, organism-based
[5] = Antibacterial activity against Legionella; More active; type: functional
Chlamydia = experiment: Antibacterial activity against Chlamydia; More active; type: functional, organism-based
[6] = Antibacterial activity against […] species.; More active; type: functional
Streptococcus sp. = experiment: Antibacterial activity against Streptococci; More active; type: functional, organism-based
Enterococcus faecalis = experiment: Inhibitory activity against VanA strain of E. faecalis; Range is 0.03-2 ug/mL; type: functional
Streptococcus pyogenes = experiment: Inhibitory activity against Streptococcus pyogenes; type: functional
Enterococcus faecium = experiment: Inhibitory activity against VanA strain of E. faecium; Range is 0.03-2 ug/mL; type: functional
[7] = Inhibitory activity against VanB enterococci; Range is 0.016-1 ug/mL; type: functional
Streptococcus pneumoniae = experiment: Inhibitory activity against Streptococcus pneumoniae; type: functional

In the case of `CC(C)CC/C=C\C=C/C(=O)NC(CC(N)=O)C(=O)CC1C(=O)N[C@@H](c2ccc(O)cc2)C(=O)N[C@@H](CCCN)C(=O)N[C@@H]([C@@H](C)O)C(=O)N[C@@H](c2ccc(O)cc2)C(=O)N[C@@H](c2ccc(O)cc2)C(=O)N[C@@H]([C@@H](C)O)C(=O)N[C@@H](Cc2ccccc2)C(=O)N[C@@H](CCCN)C(=O)N[C@@H](c2ccc(O[C@H]3OC(CO)[C@@H](O)[C@@H](O)[C@@H]3O[C@H]3O[C@@H](CO)[C@@H](O)[C@H](O)[C@H]3O)cc2)C(=O)N[C@@H]([C@@H](C)O)C(=O)N[C@@H](c2ccc(O)cc2)C(=O)NCC(=O)N[C@@H](CC(C)C)C(=O)N[C@@H](C)C(=O)N[C@@H](c2ccc(O)c(Cl)c2)C(=O)OC1C(N)=O` (some centres undefined) ([Hpg][Orn]T[Hpg][Hpg]TF[Orn][X1]T[Hpg]GLA[Hpg(3-Cl)]; linker N-C via X4), the MIC90 [1] is reported as ≤ 0.25 µg/mL, the MIC90 [2] is reported as ≤ 0.25 µg/mL and the MIC90 [3] is reported as ≤ 0.25 µg/mL. The MIC90 (Enterococcus) was 0.5 µg/mL (≈ 0.195 µM).

For `C[C@@H]1[C@H](NC(=O)/C(=N\OCc2cc3cc(O)c(O)cc3cc2C(=O)O)c2csc(N)n2)C(=O)N1S(=O)(=O)O`, the Activity (Pseudomonas aeruginosa) was “Active”.

`CC[C@H](C)[C@H](NC(=O)CN)C(=O)NCC(=O)N[C@@H](CCCCN)C(=O)N[C@@H](Cc1ccccc1)C(=O)N[C@@H](CC(C)C)C(=O)N[C@@H](Cc1c[nH]cn1)C(=O)N[C@@H](CO)C(=O)N[C@@H](C)C(=O)N[C@@H](CCCCN)C(=O)N[C@@H](CCCCN)C(=O)N[C@@H](Cc1ccccc1)C(=O)NCC(=O)N[C@@H](CCCCN)C(=O)N[C@@H](C)C(=O)N[C@@H](Cc1ccccc1)C(=O)N[C@H](C(=O)NCC(=O)N[C@@H](CCC(=O)O)C(=O)N[C@H](C(=O)N[C@@H](CCSC)C(=O)N[C@@H](CC(N)=O)C(=O)N[C@@H](CO)C(=O)O)[C@@H](C)CC)C(C)C` [MAGAININ 2] (H-GIGKFLHSAKKFGKAFVGEIMNS-OH) gave an MIC [4] of 5 µg/mL (≈ 2.03 µM).

With `CCC/C=C\C=C/C(=O)NC(CC(N)=O)C(=O)CC1C(=O)N[C@@H](c2ccc(O)cc2)C(=O)N[C@@H](CCCN)C(=O)N[C@@H]([C@@H](C)O)C(=O)N[C@@H](c2ccc(O)cc2)C(=O)N[C@@H](c2ccc(O)cc2)C(=O)N[C@@H]([C@@H](C)O)C(=O)N[C@@H](Cc2ccccc2)C(=O)N[C@@H](CCCN)C(=O)N[C@@H](c2ccc(O[C@H]3OC(CO)[C@@H](O)[C@@H](O)[C@@H]3O[C@H]3O[C@@H](CO)[C@@H](O)[C@H](O)[C@H]3O)cc2)C(=O)N[C@@H]([C@@H](C)O)C(=O)N[C@@H](c2ccc(O)cc2)C(=O)NCC(=O)N[C@@H](CC(C)C)C(=O)N[C@@H](C)C(=O)N[C@@H](c2ccc(O)c(Cl)c2)C(=O)OC1C(N)=O` (some centres undefined) ([Hpg][Orn]T[Hpg][Hpg]TF[Orn][X1]T[Hpg]GLA[Hpg(3-Cl)]; linker N-C via X3) the MIC90 [1] was ≤ 0.25 µg/mL, the MIC90 [2] was ≤ 0.25 µg/mL and the MIC90 [3] was ≤ 0.25 µg/mL. For the same compound, the MIC90 (Enterococcus) was 0.5 µg/mL (≈ 0.197 µM).

In the case of `CC(C)C/C=C\C=C/C(=O)NC(CC(N)=O)C(=O)CC1C(=O)N[C@@H](c2ccc(O)cc2)C(=O)N[C@@H](CCCN)C(=O)N[C@@H]([C@@H](C)O)C(=O)N[C@@H](c2ccc(O)cc2)C(=O)N[C@@H](c2ccc(O)cc2)C(=O)N[C@@H]([C@@H](C)O)C(=O)N[C@@H](Cc2ccccc2)C(=O)N[C@@H](CCCN)C(=O)N[C@@H](c2ccc(O[C@H]3OC(CO)[C@@H](O)[C@@H](O)[C@@H]3O[C@H]3O[C@@H](CO)[C@@H](O)[C@H](O)[C@H]3O)cc2)C(=O)N[C@@H]([C@@H](C)O)C(=O)N[C@@H](c2ccc(O)cc2)C(=O)NCC(=O)N[C@@H](CC(C)C)C(=O)N[C@@H](C)C(=O)N[C@@H](c2ccc(O)c(Cl)c2)C(=O)OC1C(N)=O` (some centres undefined) ([Hpg][Orn]T[Hpg][Hpg]TF[Orn][X1]T[Hpg]GLA[Hpg(3-Cl)]; linker N-C via X2), the MIC90 [1] is reported as ≤ 0.25 µg/mL, the MIC90 [2] is reported as ≤ 0.25 µg/mL and the MIC90 [3] is reported as ≤ 0.25 µg/mL. It also gave an MIC90 (Enterococcus) of 0.5 µg/mL (≈ 0.196 µM).

`CN(C)[C@@H]1C(=O)C(C(N)=O)=C(O)[C@@]2(O)C(=O)C3=C(O)c4c(O)cccc4[C@H](CSCCCCl)C3[C@H](O)C12` (some centres undefined) showed an MIC90 (Staphylococcus aureus) of 2 µg/mL (≈ 3.62 µM).

In the case of `CC[C@H]1OC(=O)[C@H](C)[C@@H](O[C@H]2C[C@@](C)(OC)[C@@H](O)[C@H](C)O2)[C@H](C)[C@@H](O[C@@H]2O[C@H](C)C[C@H](N(C)C)[C@H]2O)[C@](C)(O)C[C@@H](C)CN(C)[C@H](C)[C@@H](O)[C@]1(C)O`, the Activity (Haemophilus influenzae) is reported as “Active”, the Activity (Pasteurella multocida) is reported as “Active” and the Activity [5] is reported as “Active”. The Activity (Chlamydia) was “Active”, the Activity [6] was “Active” and the Activity (Streptococcus sp.) was “Active”.

For `C[C@@H]1[C@H](NC(=O)/C(=N\OCC(=O)NNC(=O)c2nc3cc(O)c(O)cc3nc2C(=O)O)c2csc(N)n2)C(=O)N1S(=O)(=O)O`, the Activity (Pseudomonas aeruginosa) was “Active”.

In the case of `CN[C@H](CC(C)C)C(=O)N[C@H]1C(=O)N[C@@H](CC(N)=O)C(=O)N[C@H]2C(=O)N[C@H]3C(=O)N[C@](C)(C(=O)N[C@H](C(=O)O)c4cc(O)cc(O)c4-c4cc3ccc4O)[C@H](C[C@H]3C[C@](C)(N)[C@@H](O)[C@H](C)O3)c3ccc(c(Cl)c3)Oc3cc2cc(c3O[C@@H]2O[C@H](CO)[C@@H](O)[C@H](O)[C@H]2O[C@@H]2C[C@](C)(NCc3ccc(-c4ccc(Cl)cc4)cc3)[C@@H](O)[C@H](C)O2)Oc2ccc(cc2Cl)[C@H]1O`, the MIC (Enterococcus faecalis) is reported as 0.03 µg/mL (≈ 0.0166 µM), the MIC (Streptococcus pyogenes) is reported as < 0.06 µg/mL and the MIC (Enterococcus faecium) is reported as 0.03 µg/mL (≈ 0.0166 µM). The MIC [7] was 0.016 µg/mL (≈ 0.00886 µM), the MIC (Staphylococcus aureus) was ≤ 0.5 µg/mL and the MIC (Streptococcus pneumoniae) was < 0.008 µg/mL.

With `CN(C)c1ccc(O)c2c1C[C@H]1C[C@H]3[C@H](N(C)C)C(O)=C(C(N)=O)C(=O)[C@@]3(O)C(O)=C1C2=O` [MINOCYCLINE] the MIC90 (Staphylococcus aureus) was 16 µg/mL (≈ 35 µM).
